Test results taken from ChEMBL document CHEMBL2321651, “Structure-activity relationship study on benzoic acid part of diphenylamine-based retinoids” (Bioorg Med Chem Lett, 2013).
Calls of active or inactive are those of the source. The rule behind the calls is not given here.

Tests used:
[1] = Agonist activity at RAR/RXR (unknown origin) in presence of RAR agonist Am80; set-up: species or system Homo sapiens
[2] = Agonist activity at RAR/RXR (unknown origin); set-up: species or system Homo sapiens
HL-60 [3] = assay: Induction of human HL60 cell differentiation in presence of 1 x 10^-10 M RAR agonist Am80; type: functional, cell-based
HL-60 [4] = assay: Induction of human HL60 cell differentiation; type: functional, cell-based
HL-60 [5] = assay: Inhibition of Am80-induced human HL60 cell differentiation; type: cell-based
Retinoid X receptor = target: T1, Retinoid X receptor (Homo sapiens, UniProt P28702+P48443+P19793); assay: Agonist activity at RXR (unknown origin) in presence of RAR agonist Am80; type: protein assay
T1 sequence (P28702 whole entry): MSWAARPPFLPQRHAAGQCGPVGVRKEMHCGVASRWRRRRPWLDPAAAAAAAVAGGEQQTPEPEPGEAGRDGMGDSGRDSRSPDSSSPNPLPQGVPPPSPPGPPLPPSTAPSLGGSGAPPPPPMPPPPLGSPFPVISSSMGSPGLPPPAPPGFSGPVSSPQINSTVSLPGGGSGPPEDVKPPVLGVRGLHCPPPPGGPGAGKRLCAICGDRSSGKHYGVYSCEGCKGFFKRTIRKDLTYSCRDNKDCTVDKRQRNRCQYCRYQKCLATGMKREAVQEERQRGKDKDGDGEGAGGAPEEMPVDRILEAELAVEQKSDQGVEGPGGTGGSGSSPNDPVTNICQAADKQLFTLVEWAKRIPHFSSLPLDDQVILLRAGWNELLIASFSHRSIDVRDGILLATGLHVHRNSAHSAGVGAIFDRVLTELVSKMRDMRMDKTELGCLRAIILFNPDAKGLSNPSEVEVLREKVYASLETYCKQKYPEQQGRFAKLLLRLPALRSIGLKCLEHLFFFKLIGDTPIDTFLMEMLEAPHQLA
T1 sequence (P48443 whole entry): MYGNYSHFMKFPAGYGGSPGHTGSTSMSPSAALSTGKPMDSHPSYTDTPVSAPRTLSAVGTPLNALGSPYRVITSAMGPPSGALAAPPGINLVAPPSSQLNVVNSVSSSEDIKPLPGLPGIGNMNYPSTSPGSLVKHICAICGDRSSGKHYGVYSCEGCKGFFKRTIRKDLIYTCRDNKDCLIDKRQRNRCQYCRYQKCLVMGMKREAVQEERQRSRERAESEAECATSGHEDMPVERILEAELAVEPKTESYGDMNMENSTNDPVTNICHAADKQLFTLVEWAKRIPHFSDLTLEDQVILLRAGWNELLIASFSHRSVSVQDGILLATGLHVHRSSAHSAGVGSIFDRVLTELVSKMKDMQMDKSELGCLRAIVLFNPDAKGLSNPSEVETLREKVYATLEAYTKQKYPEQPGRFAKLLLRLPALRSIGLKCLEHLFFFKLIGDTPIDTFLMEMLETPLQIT
T1 sequence (P19793 whole entry): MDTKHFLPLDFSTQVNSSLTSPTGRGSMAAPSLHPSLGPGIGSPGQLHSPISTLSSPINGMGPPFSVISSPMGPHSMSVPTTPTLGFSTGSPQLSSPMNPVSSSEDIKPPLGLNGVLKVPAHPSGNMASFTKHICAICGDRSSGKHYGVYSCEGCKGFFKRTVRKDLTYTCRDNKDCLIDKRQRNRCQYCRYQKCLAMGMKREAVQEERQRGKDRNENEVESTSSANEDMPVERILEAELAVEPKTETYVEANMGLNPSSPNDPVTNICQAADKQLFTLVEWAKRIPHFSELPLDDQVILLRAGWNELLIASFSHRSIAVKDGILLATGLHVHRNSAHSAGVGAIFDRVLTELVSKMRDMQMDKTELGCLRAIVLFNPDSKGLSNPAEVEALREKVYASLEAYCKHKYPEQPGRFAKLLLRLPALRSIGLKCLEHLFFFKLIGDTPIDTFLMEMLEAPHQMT

HL-60 [6] = assay: Induction of human HL60 cell differentiation at 1 x 10^-10 M; type: functional
HL-60 [7] = assay: Induction of human HL60 cell differentiation at 3.3 x 10^-10 M; type: functional

| SMILES | Activity (HL-60 [3]) | Activity (HL-60 [4]) | other results |
| --- | --- | --- | --- |
| CCCN(c1ccc(C(=O)O)cc1)c1ccc2c(c1)C(C)(C)CCC2(C)C | Active |  | EC50 [1]: 1.5 nM; EC50 [2]: Not Active |
| CCCN(c1ccc(/C=C/C(=O)O)cc1)c1ccc2c(c1)C(C)(C)CCC2(C)C | Active | Active |  |
| Cc1cc(C(=O)O)ccc1N(C)c1ccc2c(c1)C(C)(C)CCC2(C)C | inactive | inactive | inhibition (INH) (HL-60 [5]): Dose-dependent effect |
| CCCN(c1ccc(/C=C/C(=O)O)cc1)c1cc2c(cc1C)C(C)(C)CCC2(C)C | Active | Active |  |
| Cc1cc2c(cc1N(C)c1ccc(C(=O)O)cc1)C(C)(C)CCC2(C)C | Active | Active | EC50 (Retinoid X receptor): 1.3 ×10⁻¹⁰ M |
| CCCN(c1ccc(C(=O)O)cc1)c1cc2c(cc1C)C(C)(C)CCC2(C)C | Active |  | EC50 (Retinoid X receptor): 1.4 ×10⁻¹⁰ M |
| CN(c1ccc(CCC(=O)O)cc1)c1ccc2c(c1)C(C)(C)CCC2(C)C | Active | Active |  |
| Cc1cc2c(cc1N(C)c1ccc(CCC(=O)O)cc1)C(C)(C)CCC2(C)C | Active | Active |  |
| Cc1cc2c(cc1N(C)c1ccc(/C=C/C(=O)O)cc1)C(C)(C)CCC2(C)C | Active |  | EC50 (HL-60 [4]): 38 nM |
| CN(c1ccc(C(=O)O)cc1)c1ccc2c(c1)C(C)(C)CCC2(C)C |  | Active | EC50 [1]: 6.6 nM; EC50 ([2]; read-out: EC50): 360 nM |
| CCCN(c1ccc(CCC(=O)O)cc1)c1ccc2c(c1)C(C)(C)CCC2(C)C | Active | Active |  |
| CC1(C)CCC(C)(C)c2cc(NC(=O)c3ccc(C(=O)O)cc3)ccc21 [TAMIBAROTENE] |  |  | Activity (HL-60 [6]): 5%; Activity (HL-60 [7]): 60% |
| CN(c1ccc(/C=C/C(=O)O)cc1)c1ccc2c(c1)C(C)(C)CCC2(C)C | Active |  | EC50 (HL-60 [4]): 22 nM |
| CCCN(c1ccc(CCC(=O)O)cc1)c1cc2c(cc1C)C(C)(C)CCC2(C)C | Active | Active |  |
